Residues, ends and D or L forms follow the SMILES beside them.
How the values were obtained:
binding of LGR4 to RSPO1 = target: T1, binding of LGR4 to RSPO1 (Homo sapiens, UniProt Q9BXB1); assay: Competitive binding analysis of LGR4 and biotinylated RSPO1 (Flag-LGR4 transfected HEK293 cells, immunoprecipitation); conditions: 50 ng/mL biotinylated RSPO1, 2 hours, MHP1-7 (FIG. 4)
T1 construct: host or cells: HEK293
T1 sequence (Q9BXB1 25-951): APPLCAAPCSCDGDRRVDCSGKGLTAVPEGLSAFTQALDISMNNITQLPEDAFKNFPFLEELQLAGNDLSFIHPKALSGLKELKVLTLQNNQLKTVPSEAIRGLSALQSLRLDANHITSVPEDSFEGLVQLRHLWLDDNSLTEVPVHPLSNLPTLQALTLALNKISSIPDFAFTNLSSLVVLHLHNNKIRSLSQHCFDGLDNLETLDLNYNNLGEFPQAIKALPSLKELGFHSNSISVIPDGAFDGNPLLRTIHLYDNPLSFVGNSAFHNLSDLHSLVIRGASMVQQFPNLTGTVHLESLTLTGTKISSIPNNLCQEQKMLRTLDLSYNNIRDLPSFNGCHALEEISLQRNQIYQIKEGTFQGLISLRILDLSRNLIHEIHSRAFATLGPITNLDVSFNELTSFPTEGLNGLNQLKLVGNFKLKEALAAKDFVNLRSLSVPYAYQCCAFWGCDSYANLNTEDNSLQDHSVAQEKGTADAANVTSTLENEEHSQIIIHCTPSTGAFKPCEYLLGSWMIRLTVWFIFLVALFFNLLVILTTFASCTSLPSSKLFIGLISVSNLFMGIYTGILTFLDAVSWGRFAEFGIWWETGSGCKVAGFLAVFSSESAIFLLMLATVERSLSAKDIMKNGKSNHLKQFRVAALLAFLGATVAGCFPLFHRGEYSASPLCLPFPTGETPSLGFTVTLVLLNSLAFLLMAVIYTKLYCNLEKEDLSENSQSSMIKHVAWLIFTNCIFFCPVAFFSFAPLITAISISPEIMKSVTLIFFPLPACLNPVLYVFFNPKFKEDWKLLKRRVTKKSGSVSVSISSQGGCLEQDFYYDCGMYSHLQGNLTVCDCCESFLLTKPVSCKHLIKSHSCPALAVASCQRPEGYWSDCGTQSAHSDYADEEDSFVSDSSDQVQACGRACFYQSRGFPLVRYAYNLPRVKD
Method: HEK293 cells were incubated with 100 μg/mL of RANKL peptide or biotinylated RANKL peptide for 30 minutes, followed by immunoprecipitation. For competitive binding analysis, HEK293 cells were transfected with a Flag-tagged LGR4 expression plasmid (OriGene Technologies) for 48 hours, and incubated for 2 hours in the presence of 50 ng/mL L of recombinant human biotinylated RSPO1 (R&D System, #BT4645) and RANKL peptide. For immunoprecipitation, the cells were washed twice with cold PBS and dissolved in a lysis buffer (50 mM Tris-HCL, pH 7.4, 150 mM NaCl, 5 mM EDTA, 0.5% NP40, 10% glycerol and protease inhibitor cocktail (Roche)). The sample was centrifuged at 16,000 g for 10 minutes. The supernatant was collected, and the protein concentration was determined. Immunoprecipitation from samples containing equal amounts of protein was performed at 4° C. overnight using high-capacity streptavidin agarose (Thermo Fisher Scientific or Anti-FLAG M2 Affinity Gel (Sigma-Aldrich), followed by washing twice with a lysis buffer, and elution with 2× Laemmli Sample Buffer at 37° C. for 30 minutes before Western blotting. The blotted membrane was incubated with the primary antibody at 4° C. overnight, washed with TBS containing 0.1% Tween-20, then incubated with the HRP-conjugated secondary antibody at room temperature for 1 hour, and then incubated with Chemi-Lumi One L (Nacalai Tesque). […]

A549 cells = assay: Migration/invasion assay of A549 cells (Boyden chamber / Matrigel Invasion chamber); format: cell-based, human
Method: The influence of RANKL peptide on the migration and invasion of A549 cells was examined. Specifically, the following procedure was performed. A chamber of an 8-μm polycarbonate membrane filter (Neuro Probe) was installed in the upper compartment of a Boyden chamber (48-well Chamber, Neuro Probe), A549 cells were seeded in serum-free DMEM containing MHP1-AcN, and DMEM containing 10% FBS was placed in the lower compartment, followed by incubation at 37° C. for 15 hours. In the invasion assay, the upper compartment was Matrigel Invasion chamber (Corning Life Science). Similar A549 cells were seeded in serum-free medium containing MHP1-AcN, and DEM containing 10% FBS was placed in the lower compartment. Cells adhering to the upper surface of each upper compartment were detached, the lower surface was stained with Diff-Quick (Sysmex), and the number of cells was counted under a microscope.

[1] = test system: bleomycin-induced pulmonary fibrosis model; assay: Administration test in bleomycin-induced pulmonary fibrosis model; format: in vivo, C57BL6/J mice; conditions: 800 μg/mouse i.p. once, bleomycin intratracheally, 14 days
Method: As test animals, C57BL6/J mice (female, 8 weeks old) were prepared. Saline or RANKL peptide (800 μg/mouse) was administered intraperitoneally, and immediately thereafter, saline or bleomycin (0.05 μg/mouse) was directly administered intratracheally. The mice were sacrificed 14 days after administration, the lung weight and body weight were measured, and the lung weight/body weight ratio was determined. In addition, the lung tissue, was stained with Masson's trichrome, and Masson's trichrome score evaluation (0: normal, 1: fibrotic lesions predominantly at the margin of the lung, 2: marginal or global multifocal fibrotic lesions, 3: fibrotic lesions in approximately ⅓ of the area, 4: fibrotic lesions accounting for ⅔ or more of the area) was performed based on the stained images. Further, the expression of fibrosis marker gene mRNA in lung tissue was evaluated.

[2] = test system: α-SMA and Colla1 expression (EMT); assay: Expression of α-SMA and Colla1 induced by TGF-β in MRC-5 cells (real-time RT-PCR); format: cell-based
Method: The influence of RANKL peptide on the expression of α-SMA and Colla1 induced by TGF-β was examined. Specifically, the following procedure was performed. After pretreatment of MHP1 with MRC-5 cells for 24 hours, 2 ng/m/ of TGFβ was added, the cells were collected after 24 hours, and mRNA levels were determined by real-time RT-PCR.

[3] = MRC-5 cells, 24 hours pretreatment, TGFβ 24 hours, 10, 30, 100 μg/ml MHP1-AcN (FIG. 19)

CC[C@H](C)[C@H](NC(=O)[C@H](CO)NC(=O)[C@@H](NC(=O)[C@H](CCCCN)NC(=O)[C@@H](NC(=O)[C@@H](NC(=O)[C@H](Cc1ccc(O)cc1)NC(=O)[C@@H](NC(=O)[C@H](CCSC)NC(=O)[C@H](CC(C)C)NC(C)=O)C(C)C)C(C)C)C(C)C)[C@@H](C)O)C(=O)N[C@@H](CCCCN)C(=O)N[C@H](C(=O)N1CCC[C@H]1C(=O)N[C@@H](CO)C(=O)N[C@@H](CO)C(=O)N[C@@H](Cc1c[nH]cn1)C(=O)N[C@@H](CC(N)=O)C(=O)N[C@@H](CC(C)C)C(=O)N[C@@H](CCSC)C(=O)N[C@@H](CCCCN)C(=O)NCC(=O)NCC(=O)N[C@@H](CO)C(=O)N[C@H](C(=O)N[C@@H](CCCCN)C(=O)N[C@@H](CC(N)=O)C(=O)N[C@@H](Cc1c[nH]c2ccccc12)C(=O)N[C@@H](CO)C(=O)NCC(=O)N[C@@H](CC(N)=O)C(N)=O)[C@@H](C)O)[C@@H](C)CC [MHP1-7] (Ac-LMVYVVKTSIKIPSSHNLMKGGSTKNWSGN-NH2)
RSPO1 in the total cell lysate and the lysate immunoprecipitated with FLAG (Streptavidin-HRP) (binding of LGR4 to RSPO1): reduced | binding of LGR4 to RSPO1 (binding of LGR4 to RSPO1): inhibits | migration of lung cancer cells (number of cells) (A549 cells; A549 cells, Boyden chamber, 15 hours, MHP1-AcN (FIG. 15)): inhibited | invasion of lung cancer cells (number of cells) (A549 cells; A549 cells, Matrigel Invasion chamber, MHP1-AcN (FIG. 15)): inhibited | Wnt signaling pathway in A549 cells (A549 cells; migration/invasion test): inhibited | lung weight gain ([1]; MHP1-7 (FIG. 11)): suppressed | weight loss (body weight) ([1]; MHP1-7 (FIG. 11)): suppressed | expression of the fibrosis marker gene mRNA in lung tissue ([1]; MHP1-7 (FIG. 12)): inhibited | lung tissue fibrosis (Masson's trichrome score) ([1]; MHP1-7 (FIG. 13)): inhibited | expression of Colla1 induced by TGF-β [2, 3]: inhibited | expression of α-SMA (ACTA2) induced by TGF-β [2, 3]: inhibited | EMT (epithelial-mesenchymal transition) ([2]; concluded from α-SMA and Colla1 expression in MRC-5 cells): inhibited

— patent US20230374103A1, “Wnt SIGNALING PATHWAY INHIBITOR” (OSAKA UNIVERSITY, priority 2020, published 2023)
